Results as given in US4528287A, “6-Fluoro-1, 4-dihydro-4-oxo-7-substituted piperazinylquinoline-3-carboxylic acids and the method for preparing the same” (priority 1983, dated 1985).
≈ marks a conversion by molar mass, not a printed value. Read-outs that look alike come from different tables or passages of the source.

What was measured:
[1] = Urinary excretion in rats after oral dosing (bioassay with Escherichia coli NIHJ-JC-2); assay type: in vivo, SD strain); conditions: rat, male SD rats, 20 mg/Kg per os, fasted 24 hr
Description: Male rats of SD strain, weighing 180-210 g, were used 8 animals at a group. Test compounds suspended in 0.5% carboxymethyl cellulose were administered per os to 24 hr-fasted rats at dose of 20 mg/Kg. Urine was pooled from 0 to 6 hrs. and 6 to 24 hrs, and urinary excretion was measured by bioassay using Escherichia coli NIHJ-JC-2.
The assay method employed was the cup-plate method using
Escherichia coli NIHJ-JC-2. Urine was appropriately diluted with 1/15M phosphate buffer pH7.0, before assay if necessary. Standard calibration lines were made in 1/15M phosphate buffer pH7.0.

[2] = in vivo; conditions: mouse, male ddY mice, 10 days
Description: Male mice of ddY strain, 4 weeks old, were used with 10 animals at a group. Test compounds suspended in 0.5% carboxymethyl cellulose were administered per os (p.o.) in mice. In the case of intraveneous (i.v.) administration, test compounds were solved in 0.1N-HCl solution and neutralized with 0.1N-NaOH solution.

[3] = system: Salmonella enteritidis G14; experiment: MIC, twofold agar dilution; assay type: cell-based; conditions: Salmonella enterica, Gram -, 10^6 cells/ml, 18 hrs, 37° C., read-out: Minimum inhibitory concentration (MIC)
Description: (§1) Minimum inhibitory concentrations (MIC) were determined by the twofold agar dilution method (Chemotherapy, 29(1), 76(1981)). Overnight cultures in Mueller-Hinton broth were suspended by buffered saline gelatine. One loopful of the bacterial suspension (10^6 or 10^8 colony-forming units/ml) was incubated onto the test compound-containing plates. The plates were incubated for 18 hrs. at 37° C. The MIC was the lowest concentration of the drug that inhibited visible growth.

[4] = system: Salmonella typhi 901; experiment: MIC, twofold agar dilution; assay type: cell-based; conditions: Salmonella enterica, 18 h, read-out: Minimum inhibitory concentration (MIC)
Description: as §1

[5] = system: Bacillus subtilis ATCC6633; experiment: MIC, twofold agar dilution; assay type: cell-based; conditions: Gram +, 10^6 cells/ml, 18 hrs, 37° C., read-out: Minimum inhibitory concentration (MIC)
Description: as §1

[6] = system: Proteus vulgalis HX-19; experiment: MIC, twofold agar dilution; assay type: cell-based; conditions: Gram -; 10^6 cells/ml; 18 hrs, 37° C.; read-out: Minimum inhibitory concentration (MIC)
Description: as §1

[7] = system: Pseudomonas aeruginosa IFO3445; experiment: MIC, twofold agar dilution; assay type: cell-based; conditions: Gram -, 10^6 cells/ml, 18 hrs, 37° C., read-out: Minimum inhibitory concentration (MIC)
Description: as §1

[8] = system: Escherichia coli K-12 C600; experiment: MIC, twofold agar dilution; assay type: cell-based; conditions: K12C600, Gram -, 10^6 cells/ml, 18 hrs, 37° C., read-out: Minimum inhibitory concentration (MIC)
Description: as §1

[9] = system: Enterobacter aerogenes ATCC13048; experiment: MIC, twofold agar dilution; assay type: cell-based; conditions: Klebsiella aerogenes, Gram -, 10^6 cells/ml, 18 hrs, 37° C., read-out: Minimum inhibitory concentration (MIC)
Description: as §1

[10] = system: Enterobacter cloaceas 963; experiment: MIC, twofold agar dilution; assay type: cell-based; conditions: Gram -, 10^6 cells/ml, 18 hrs, 37° C., read-out: Minimum inhibitory concentration (MIC)
Description: as §1

[11] = system: Proteus mirabilis IFO3849; experiment: MIC, twofold agar dilution; assay type: cell-based; conditions: Gram -, 10^6 cells/ml, 18 hrs, 37° C., read-out: Minimum inhibitory concentration (MIC)
Description: as §1

[12] = system: Pseudomonas aeruginosa PAO7; experiment: MIC, twofold agar dilution; assay type: cell-based; conditions: Gram -, 10^6 cells/ml, 18 hrs, 37° C., read-out: Minimum inhibitory concentration (MIC)
Description: as §1

[13] = system: Salmonella schottmulleri 0006; experiment: MIC, twofold agar dilution; assay type: cell-based; conditions: Gram -, 10^6 cells/ml, 18 hrs, 37° C., read-out: Minimum inhibitory concentration (MIC)
Description: as §1

[14] = system: Proteus vulgalis OX-19; experiment: MIC, twofold agar dilution; assay type: cell-based; conditions: Gram -; 10^6 cells/ml; 18 hrs, 37° C.; read-out: Minimum inhibitory concentration (MIC)
Description: as §1

[15] = system: Escherichia coli NIHJ-JC-2; experiment: MIC, twofold agar dilution; assay type: cell-based; conditions: NIHJJC2, Gram -, 10^6 cells/ml, 18 hrs, 37° C., read-out: Minimum inhibitory concentration (MIC)
Description: as §1

[16] = system: Proteus morganii IFO3848; experiment: MIC, twofold agar dilution; assay type: cell-based; conditions: Morganella morganii, Gram -, 10^6 cells/ml, 18 hrs, 37° C., read-out: Minimum inhibitory concentration (MIC)
Description: as §1

[17] = system: Klebsiella pneumoniae PCI-602; experiment: MIC, twofold agar dilution; assay type: cell-based; conditions: PCI602, Gram -, 10^6 cells/ml, 18 hrs, 37° C., read-out: Minimum inhibitory concentration (MIC)
Description: as §1

[18] = system: Staphylococcus aureus FAD208PJC-1; experiment: MIC, twofold agar dilution; assay type: cell-based; conditions: FAD208PJC1, Gram +, 10^6 cells/ml, 18 hrs, 37° C., read-out: Minimum inhibitory concentration (MIC)
Description: as §1

[19] = system: Streptococcus pyogenes Cook; experiment: MIC, twofold agar dilution; assay type: cell-based; conditions: Gram +, 10^6 cells/ml, 18 hrs, 37° C., read-out: Minimum inhibitory concentration (MIC)
Description: as §1

[20] = system: Proteus rettgeri IFO3850; experiment: MIC, twofold agar dilution; assay type: cell-based; conditions: Providencia rettgeri, Gram -, 10^6 cells/ml, 18 hrs, 37° C., read-out: Minimum inhibitory concentration (MIC)
Description: as §1

[21] = system: Serratia marcescens IAM1184; experiment: MIC, twofold agar dilution; assay type: cell-based; conditions: Gram -, 10^6 cells/ml, 18 hrs, 37° C., read-out: Minimum inhibitory concentration (MIC)
Description: as §1

[22] = system: Pseudomonas aeruginosa NCTC10490; experiment: MIC, twofold agar dilution; assay type: cell-based; conditions: Gram -, 10^6 cells/ml, 18 hrs, 37° C., read-out: Minimum inhibitory concentration (MIC)
Description: as §1

[23] = system: Micrococcus luteus ATCC9341; experiment: MIC, twofold agar dilution; assay type: cell-based; conditions: Gram +, 10^6 cells/ml, 18 hrs, 37° C., read-out: Minimum inhibitory concentration (MIC)
Description: as §1

[24] = system: Pseudomonas aeruginosa ATCC9027; experiment: MIC, twofold agar dilution; assay type: cell-based; conditions: Gram -, 10^6 cells/ml, 18 hrs, 37° C., read-out: Minimum inhibitory concentration (MIC)
Description: as §1

[25] = system: Salmonella paratyphi 1015; experiment: MIC, twofold agar dilution; assay type: cell-based; conditions: Salmonella enterica, 18 h, read-out: Minimum inhibitory concentration (MIC)
Description: as §1

[26] = system: Staphylococcus aureus MS-353; experiment: MIC, twofold agar dilution; assay type: cell-based; conditions: MS353, Gram +, 10^6 cells/ml, 18 hrs, 37° C., read-out: Minimum inhibitory concentration (MIC)
Description: as §1

[27] = system: Staphylococcus aureus Terajima; experiment: MIC, twofold agar dilution; assay type: cell-based; conditions: Gram +, 10^6 cells/ml, 18 hrs, 37° C., read-out: Minimum inhibitory concentration (MIC)
Description: as §1

[28] = system: Salmonella typhimurium IID 971; experiment: MIC, twofold agar dilution; assay type: cell-based; conditions: Salmonella enterica; Gram -; 10^6 cells/ml; 18 hrs, 37° C.; read-out: Minimum inhibitory concentration (MIC)
Description: as §1

SMILES | MIC [3] [µg/mL] | MIC [4] [µg/mL] | MIC [5] [µg/mL] | MIC [6] [µg/mL] | MIC [7] [µg/mL] | MIC [8] [µg/mL] | MIC [9] [µg/mL] | MIC [10] [µg/mL] | MIC [11] [µg/mL] | MIC [12] [µg/mL] | MIC [13] [µg/mL] | MIC [14] [µg/mL] | MIC [15] [µg/mL] | MIC [16] [µg/mL] | MIC [17] [µg/mL] | MIC [18] [µg/mL] | MIC [19] [µg/mL] | MIC [20] [µg/mL] | MIC [21] [µg/mL] | MIC [22] [µg/mL] | further results
CCn1cc(C(=O)O)c(=O)c2cc(F)c(N3CCNC(C)C3)cc21 (stereo not drawn) [Example 1, 1-Ethyl-6-fluoro-1,4-dihydro-7-(3-methyl-1-piperazinyl)-4-oxoquinoline-3-carboxylic acid] | 0.1 (≈ 0.3 µM) | 0.05 (≈ 0.15 µM) | 0.1 (≈ 0.3 µM) | 0.025 (≈ 0.075 µM) | 0.78 (≈ 2.34 µM) | 0.1 (≈ 0.3 µM) | 0.1 (≈ 0.3 µM) | 0.1 (≈ 0.3 µM) | 0.39 (≈ 1.17 µM) | 0.78 (≈ 2.34 µM) | 0.025 (≈ 0.075 µM) | 0.05 (≈ 0.15 µM) | 0.1 (≈ 0.3 µM) | 0.025 (≈ 0.075 µM) | 0.025 (≈ 0.075 µM) | 0.2 (≈ 0.6 µM) | 3.13 (≈ 9.39 µM) | 0.1 (≈ 0.3 µM) | 0.2 (≈ 0.6 µM) | 0.39 (≈ 1.17 µM) | concentration at 6 h ([1]; urine 0-6 hr, read-out: Drug Concentration in Urine 0-6 (hr)): 514 µg/mL; dose excreted at 24 h ([1]; urine 0-24 hr, read-out: Rate of Urinary Excretion 0-24 (hr)): 30%; concentration at 24 h ([1]; urine 6-24 hr, read-out: Drug Concentration in Urine 6-24 (hr)): 28 µg/mL; LD50 at 240 h ([2]; iv, i.v., read-out: LD50 i.v. (95% Confidence Limit)): 348 mg/kg; LD50 at 240 h ([2]; po, p.o., read-out: LD50 p.o.): > 4000 mg/kg; MIC [23]: 25 µg/mL (≈ 75 µM); MIC [24]: 0.1 µg/mL (≈ 0.3 µM); MIC [25]: 0.0125 µg/mL (≈ 0.0375 µM); MIC [26]: 0.39 µg/mL (≈ 1.17 µM); MIC [27]: 0.39 µg/mL (≈ 1.17 µM); MIC [28]: 0.1 µg/mL (≈ 0.3 µM)
CCn1cc(C(=O)O)c(=O)c2cc(F)c(N3CCNCC3)cc21 [Reference Drug, norfloxacin, reference compound] | 0.05 (≈ 0.157 µM) | 0.025 (≈ 0.0783 µM) | 0.1 (≈ 0.313 µM) | 0.025 (≈ 0.0783 µM) | 0.78 (≈ 2.44 µM) | 0.05 (≈ 0.157 µM) | 0.1 (≈ 0.313 µM) | 0.05 (≈ 0.157 µM) | 0.1 (≈ 0.313 µM) | 0.39 (≈ 1.22 µM) | 0.025 (≈ 0.0783 µM) | 0.05 (≈ 0.157 µM) | 0.05 (≈ 0.157 µM) | 0.025 (≈ 0.0783 µM) | 0.025 (≈ 0.0783 µM) | 0.2 (≈ 0.626 µM) | 1.56 (≈ 4.89 µM) | 0.05 (≈ 0.157 µM) | 0.1 (≈ 0.313 µM) | 0.78 (≈ 2.44 µM) | MIC [23]: 6.25 µg/mL (≈ 19.6 µM); MIC [24]: 0.05 µg/mL (≈ 0.157 µM); MIC [25]: 0.025 µg/mL (≈ 0.0783 µM); MIC [26]: 6.25 µg/mL (≈ 19.6 µM); MIC [27]: 0.39 µg/mL (≈ 1.22 µM); MIC [28]: 0.05 µg/mL (≈ 0.157 µM)
